The values below are quoted from earlier work in article PMC6340882, “Targeting protein kinase CK2 and CDK4/6 pathways with a multi-kinase inhibitor ON108110 suppresses pro-survival signaling and growth in mantle cell lymphoma and T-acute lymphoblastic leukemia” (Oncotarget, 2018).

For this series, the system named is mantle cell lymphoma. Also noted: method as in PMID 22383795. The following applies: monotherapy for MCL, patients; cited from earlier work.

As for `CC(=O)c1c(C)c2cnc(Nc3ccc(N4CCNCC4)cn3)nc2n(C2CCCC2)c1=O` [Palbociclib], the overall response rate is reported as 18%.
